Patent US8293746B2, “Pyrimidinyl aryl urea derivatives being FGF inhibitors” (Novartis AG, priority 2005, dated 2012)

melting point: 143 to 144 °C
SMILES: CCN1CCN(c2ccc(Nc3cc(N(C)C(=O)Nc4cc(OC)c(Cl)c(C(F)(F)F)c4Cl)ncn3)cc2)CC1 [Example 25, 3-(2,4-Dichloro-5-methoxy-3-trifluoromethyl-phenyl)-1-{6-[4-(4-ethyl-piperazin-1-yl)-phenylamino]-pyrimidin-4-yl}-1-methyl-urea]
